System: adult fleas (C. felis)
Experiment: In vitro membrane feeding exposure to assess flea reproduction
Design: species or system Ctenocephalides felis
Details: for Pupal Development Control / Larval Emergence: eggs of parent fleas fed 0.09 ng/mL in blood
Procedure: A membrane feeding method [Wade S E, Georgi J R. Survival and reproduction of artificially fed cat fleas, Ctenocephalides felis Bouché (Siphonaptera: Pulicidae). J Med Entomol 1988, 25: 186-190.] was modified to assess the impact of fluralaner exposure on flea reproduction. Defibrinated sheep blood was prepared in a series of dilutions with fluralaner to obtain concentrations between 50.0 and 0.09 ng/mL. These test solutions were prepared twice and each preparation was tested in duplicate resulting in a total of 4 replicates per concentration, along with a fluralaner negative solvent control (a solvent concentration equivalent to that of the highest concentrated fluralaner test solution) and an untreated control.
Unfed adult fleas (C. felis; 20 males and 20 females) were placed into a plastic unit that was then closed with a gauze lid. A grid inside the plastic unit divided the unit into 2 chambers, an upper chamber for flea feeding and a lower chamber for egg collection. Test or control blood preparations (2 ml) were placed in an artificial membrane closed glass tube that was then placed on the plastic unit as the food source. Feeding units were incubated (38° C. and 60% RH) for 10 days. Test and negative control blood preparations were freshly prepared and exchanged (on days 1, 3, 5, and 8) to permit continuous flea feeding. Fleas were transferred into fresh plastic units on Days 5 and 8 to facilitate egg collection. Collected eggs were mixed with flea nourishment medium and incubated (28° C. and 80% RH) in darkness for 22 (±3) days to enable flea development. Parameters recorded were flea survival, oviposition control, egg hatchability, pupa control, flea-emergence control and reproduction inhibition.

[1] = 0.09 ng/mL in blood, exposure day 3
[2] = 0.09 ng/mL in blood, exposure day 4
[3] = 0.09 ng/mL in blood, exposure day 5
[4] = 0.09 ng/mL in blood, exposure day 8
[5] = 0.09 ng/mL in blood, exposure day 9
[6] = 0.09 ng/mL in blood, exposure day 10
[7] = 0.19 ng/mL in blood, exposure day 3
[8] = 0.19 ng/mL in blood, exposure day 4
[9] = 0.19 ng/mL in blood, exposure day 5
[10] = 0.19 ng/mL in blood, exposure day 8
[11] = 0.19 ng/mL in blood, exposure day 9
[12] = 0.19 ng/mL in blood, exposure day 10
[13] = 0.39 ng/mL in blood, exposure day 3
[14] = 0.39 ng/mL in blood, exposure day 4
[15] = 0.39 ng/mL in blood, exposure day 5
[16] = 0.39 ng/mL in blood, exposure day 8
[17] = 0.39 ng/mL in blood, exposure day 9
[18] = 0.39 ng/mL in blood, exposure day 10
[19] = 0.78 ng/mL in blood, exposure day 3
[20] = 0.78 ng/mL in blood, exposure day 4
[21] = 0.78 ng/mL in blood, exposure day 5
[22] = 0.78 ng/mL in blood, exposure day 8
[23] = 0.78 ng/mL in blood, exposure day 9
[24] = 0.78 ng/mL in blood, exposure day 10
[25] = 1.56 ng/mL in blood, exposure day 3
[26] = 1.56 ng/mL in blood, exposure day 4
[27] = 1.56 ng/mL in blood, exposure day 5
[28] = 1.56 ng/mL in blood, exposure day 8
[29] = 1.56 ng/mL in blood, exposure day 9
[30] = 1.56 ng/mL in blood, exposure day 10
[31] = 3.13 ng/mL in blood, exposure day 3
[32] = 3.13 ng/mL in blood, exposure day 4
[33] = 3.13 ng/mL in blood, exposure day 5
[34] = 3.13 ng/mL in blood, exposure day 8
[35] = 3.13 ng/mL in blood, exposure day 9
[36] = 3.13 ng/mL in blood, exposure day 10
[37] = 6.25 ng/mL in blood, exposure day 3
[38] = 6.25 ng/mL in blood, exposure day 4
[39] = 6.25 ng/mL in blood, exposure day 5
[40] = 6.25 ng/mL in blood, exposure day 8
[41] = 6.25 ng/mL in blood, exposure day 9
[42] = 6.25 ng/mL in blood, exposure day 10
[43] = 12.5 ng/mL in blood, exposure day 3
[44] = 12.5 ng/mL in blood, exposure day 4
[45] = 12.5 ng/mL in blood, exposure day 5
[46] = 12.5 ng/mL in blood, exposure day 8
[47] = 12.5 ng/mL in blood, exposure day 9
[48] = 12.5 ng/mL in blood, exposure day 10
[49] = 25.0 ng/mL in blood, exposure day 3
[50] = 25.0 ng/mL in blood, exposure day 4
[51] = 25.0 ng/mL in blood, exposure day 5
[52] = 50.0 ng/mL in blood, exposure day 3
[53] = 50.0 ng/mL in blood, exposure day 4
[54] = 50.0 ng/mL in blood, exposure day 5

With `Cc1cc(C2=NOC(c3cc(Cl)cc(Cl)c3)(C(F)(F)F)C2)ccc1C(=O)NCC(=O)NCC(F)(F)F` (stereo not shown) [fluralaner, 4-[5-(3,5-Dichlorophenyl)-5-trifluoromethyl-4,5-dihydroisoxazol-3-yl]-2-methyl-N-[(2,2,2-trifluoro-ethylcarbamoyl)-methyl]-benzamide] the “Oviposition Control” value (0.09 ng/mL in blood, arithmetic mean of exposure days) was 7.9%, the “Flea Survival” value (0.09 ng/mL in blood, exposure day 2) was 100% and the “Flea Survival” value [1] was 100%. For the same compound, the “Oviposition Control” value [1] was 0%, the “Flea Survival” value [2] was 100% and the “Oviposition Control” value [2] was 11.3%. For the same compound, the “Flea Survival” value [3] was 100%, the “Oviposition Control” value [3] was 10.9% and the “Flea Survival” value [4] was 100%. The “Oviposition Control” value [4] was 16.7%, the “Flea Survival” value [5] was 100% and the “Oviposition Control” value [5] was 0.3%. For the same compound, the “Flea Survival” value [6] was 100%, the “Oviposition Control” value [6] was 8.1% and the “Oviposition Control” value (0.19 ng/mL in blood, arithmetic mean of exposure days) was 9.2%. For the same compound, the “Flea Survival” value (0.19 ng/mL in blood, exposure day 2) was 100%, the “Flea Survival” value [7] was 100% and the “Oviposition Control” value [7] was 0%. For the same compound, the “Flea Survival” value [8] was 100%, the “Oviposition Control” value [8] was 5.1% and the “Flea Survival” value [9] was 100%. The “Oviposition Control” value [9] was 21.0%, the “Flea Survival” value [10] was 100% and the “Oviposition Control” value [10] was 15.1%. For the same compound, the “Flea Survival” value [11] was 100%, the “Oviposition Control” value [11] was 0% and the “Flea Survival” value [12] was 100%. The “Oviposition Control” value [12] was 13.9%, the “Oviposition Control” value (0.39 ng/mL in blood, arithmetic mean of exposure days) was 16.1% and the “Flea Survival” value (0.39 ng/mL in blood, exposure day 2) was 100%. For the same compound, the “Flea Survival” value [13] was 100%, the “Oviposition Control” value [13] was 6.72% and the “Flea Survival” value [14] was 100%. The “Oviposition Control” value [14] was 22.8%, the “Flea Survival” value [15] was 100% and the “Oviposition Control” value [15] was 23.2%. The “Flea Survival” value [16] was 100%, the “Oviposition Control” value [16] was 23.8% and the “Flea Survival” value [17] was 100%. For the same compound, the “Oviposition Control” value [17] was 0%, the “Flea Survival” value [18] was 98.7% and the “Oviposition Control” value [18] was 20.3%. The “Oviposition Control” value (0.78 ng/mL in blood, arithmetic mean of exposure days) was 9.4%, the “Flea Survival” value (0.78 ng/mL in blood, exposure day 2) was 100% and the “Flea Survival” value [19] was 100%. For the same compound, the “Oviposition Control” value [19] was 8.7%, the “Flea Survival” value [20] was 100% and the “Oviposition Control” value [20] was 3.0%. The “Flea Survival” value [21] was 100%, the “Oviposition Control” value [21] was 13.8% and the “Flea Survival” value [22] was 100%. The “Oviposition Control” value [22] was 12.5%, the “Flea Survival” value [23] was 100% and the “Oviposition Control” value [23] was 0%. The “Flea Survival” value [24] was 100%, the “Oviposition Control” value [24] was 18.5% and the “Oviposition Control” value (1.56 ng/mL in blood, arithmetic mean of exposure days) was 21.1%. The “Flea Survival” value (1.56 ng/mL in blood, exposure day 2) was 100%, the “Flea Survival” value [25] was 100% and the “Oviposition Control” value [25] was 0%. The “Flea Survival” value [26] was 99.4%, the “Oviposition Control” value [26] was 0% and the “Flea Survival” value [27] was 99.1%. The “Oviposition Control” value [27] was 17.3%, the “Flea Survival” value [28] was 93.9% and the “Oviposition Control” value [28] was 49.8%. The “Flea Survival” value [29] was 92.9%, the “Oviposition Control” value [29] was 30.1% and the “Flea Survival” value [30] was 90.3%. The “Oviposition Control” value [30] was 29.2%, the “Oviposition Control” value (3.13 ng/mL in blood, arithmetic mean of exposure days) was 50.5% and the “Flea Survival” value (3.13 ng/mL in blood, exposure day 2) was 100%. For the same compound, the “Flea Survival” value [31] was 100%, the “Oviposition Control” value [31] was 32.0% and the “Flea Survival” value [32] was 98.7%. For the same compound, the “Oviposition Control” value [32] was 35.7%, the “Flea Survival” value [33] was 97.8% and the “Oviposition Control” value [33] was 43.1%. The “Flea Survival” value [34] was 83.1%, the “Oviposition Control” value [34] was 70.5% and the “Flea Survival” value [35] was 79.5%. For the same compound, the “Oviposition Control” value [35] was 59.9%, the “Flea Survival” value [36] was 78.8% and the “Oviposition Control” value [36] was 62.0%. The “Oviposition Control” value (6.25 ng/mL in blood, arithmetic mean of exposure days) was 80.6%, the “Flea Survival” value (6.25 ng/mL in blood, exposure day 2) was 100% and the “Flea Survival” value [37] was 100%. The “Oviposition Control” value [37] was 82.6%, the “Flea Survival” value [38] was 97.5% and the “Oviposition Control” value [38] was 85.9%. The “Flea Survival” value [39] was 92.8%, the “Oviposition Control” value [39] was 81.3% and the “Flea Survival” value [40] was 85.0%. For the same compound, the “Oviposition Control” value [40] was 79.9%, the “Flea Survival” value [41] was 73.1% and the “Oviposition Control” value [41] was 67.5%. The “Flea Survival” value [42] was 69.7%, the “Oviposition Control” value [42] was 86.4% and the “Oviposition Control” value (12.5 ng/mL in blood, arithmetic mean of exposure days) was 99.6%. The “Flea Survival” value (12.5 ng/mL in blood, exposure day 2) was 100%, the “Flea Survival” value [43] was 100% and the “Oviposition Control” value [43] was 99.6%. The “Flea Survival” value [44] was 67.5%, the “Oviposition Control” value [44] was 100% and the “Flea Survival” value [45] was 38.9%. The “Oviposition Control” value [45] was 100%, the “Flea Survival” value [46] was 21.7% and the “Oviposition Control” value [46] was 98.9%. For the same compound, the “Flea Survival” value [47] was 17.9%, the “Oviposition Control” value [47] was 99.1% and the “Flea Survival” value [48] was 12.3%. For the same compound, the “Oviposition Control” value [48] was 100%, the “Oviposition Control” value (25.0 ng/mL in blood, arithmetic mean of exposure days) was 100% and the “Flea Survival” value (25.0 ng/mL in blood, exposure day 2) was 90.6%. The “Flea Survival” value [49] was 67.5%, the “Oviposition Control” value [49] was 100% and the “Flea Survival” value [50] was 31.9%. The “Oviposition Control” value [50] was 100%, the “Flea Survival” value [51] was 11.3% and the “Oviposition Control” value [51] was 100%. The “Flea Survival” value (25.0 ng/mL in blood, exposure day 8) was 0%, the “Flea Survival” value (25.0 ng/mL in blood, exposure day 9) was 0% and the “Flea Survival” value (25.0 ng/mL in blood, exposure day 10) was 0%. The “Oviposition Control” value (50.0 ng/mL in blood, arithmetic mean of exposure days) was 100%, the “Flea Survival” value (50.0 ng/mL in blood, exposure day 2) was 78.1% and the “Flea Survival” value [52] was 20.0%. For the same compound, the “Oviposition Control” value [52] was 100%, the “Flea Survival” value [53] was 8.7% and the “Oviposition Control” value [53] was 100%. For the same compound, the “Flea Survival” value [54] was 1.2%, the “Oviposition Control” value [54] was 100% and the “Flea Survival” value (50.0 ng/mL in blood, exposure day 8) was 0%. The “Flea Survival” value (50.0 ng/mL in blood, exposure day 9) was 0%, the “Flea Survival” value (50.0 ng/mL in blood, exposure day 10) was 0% and the “Pupal Development Control” value (arithmetic mean of exposure days) was 4.0%. The “Larval Emergence” value (exposure day 3) was “yes”, the “Pupal Development Control” value (exposure day 3) was 9.1% and the “Larval Emergence” value (exposure day 4) was “yes”. For the same compound, the “Pupal Development Control” value (exposure day 4) was 4.5%, the “Larval Emergence” value (exposure day 5) was “yes” and the “Pupal Development Control” value (exposure day 5) was 1.4%. The “Larval Emergence” value (exposure day 8) was “yes”.

Source: patent US9655884B2, “Antiparasitic use of isoxazoline compounds” (Intervet Inc., priority 2013, dated 2017)
